This note sets out measurements from patent publication US20260364184A1, “COMPOUND BASED ON OXOISOINDOLINYL-SUBSTITUTED TETRAHYDROPYRIMIDINE-DIONE AND USE THEREOF” (GLUETACS THERAPEUTICS (SHANGHAI) CO., LTD., priority 2023, published 2026).

Holding throughout (format): cell-based
For assay [1], the system named is Human myeloid monocytic leukemia cell line (MV-4-11). Nature of the assay: Inhibition of MV-4-11 cell proliferation (CellTiter luminescent viability). The following applies: for inhibition at 0.01 µM / inhibition at 0.5 µM: Homo sapiens, MV4-11, Table IE3, CDK4/6 inhibitor-based, 96 hours; for inhibition at 0.01 µM: MV-4-11, 10 nM, read-out: Inhibition Rate at 10 nM (%); for inhibition at 0.5 µM: MV-4-11, 500 nM, read-out: Inhibition Rate at 500 nM (%); for IC50: Table IE1, CDK4/6 inhibitor-based, MV-4-11, 96 hours, read-out: Inhibitory activity (IC50, nM) on tumor cell proliferation, MV-4-11. In short, it runs like this: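 IC50 is fitted from luminescent viability (CellTiter-Meiluncell) curves. Nine-point, 5-fold dilution series (top stock 2000 μM) are added at 0.5 μL per 100 μL medium to cells plated the day before, with growth at 37 °C and 5% CO2.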

Assay [2] deals with Human lung cancer cell line (H292). Nature of the assay: Inhibition of H292 cell proliferation (CellTiter luminescent viability). As to conditions: NCI-H292, Table IE2, CDK4/6 inhibitor-based, 96 hours; for inhibition at 0.01 µM: H292, 10 nM, read-out: Inhibition Rate at 10 nM (%); for inhibition at 0.5 µM: H292, 500 nM, read-out: Inhibition Rate at 500 nM (%).
The target in assay [3] is T1, CDK4 (Homo sapiens, UniProt P11802+Q96SW2).
T1 construct: expression of target proteins in cells; endogenous in cells
Nature of the assay: Western blot degradation of CDK4. The following applies: MDA-MB-231 Cell; 24 hours. Here is the method:
(§1) Conventional Western blot assay was performed to evaluate the effects of the compounds of the present disclosure on the expression of target proteins in cells.
(§2) (1) Cell Seeding and Protein Harvesting: The selected cells were processed according to the cell seeding procedure and protein harvesting procedure in Table II-2.
(§3) (2) To the collected supernatant, 5×SDS sample loading buffer was added, followed by denaturation at 95 °C for 5 minutes. The denatured samples were then separated by SDS-PAGE electrophoresis on a polyacrylamide gel. Proteins were transferred to a nitrocellulose membrane (0.45 μm NC membrane), blocked with blocking buffer at room temperature for 1 hour, and subjected to antibody incubation and development procedures according to the antibody manufacturer's instructions (Cell Signaling Technology).
(§4) Half-Maximal Degradation Concentration value (the drug concentration required for degrading proteins by 50%, abbreviated as DC50) reads method: comparing the grayscale values of Western blot bands from drug-treated samples with those from blank DMSO-treated controls, and identifying the drug concentration range at which the grayscale value is half that of the DMSO-treated control bands.
(§5) DC50 values can be calculated using ImageJ software to measure grayscale values of Western blot bands from drug-treated samples. The concentration-response curve is fitted to estimate the drug concentration corresponding to half the grayscale value.
(§6) Target protein remaining (%) refers to the percentage of target protein remaining in cells after treatment with protein degrader compounds.
(§7) Calculation method for target protein remaining (%): Use ImageJ software to measure grayscale values of Western blot bands from drug (protein degrader)-treated samples. The grayscale value of drug-treated bands is divided by that of internal control protein bands, and the resulting quotient is normalized to obtain the relative percentage of remaining target protein after protein degrader treatment.
(§8) Target protein degradation rate (%)=1−target protein remaining (%).

In assay [4] the target is T2, CDK6 (Homo sapiens, UniProt Q00534+Q96SW2).
T2 construct: expression of target proteins in cells; endogenous in cells
Nature of the assay: Western blot degradation of CDK6. The following applies: MDA-MB-231 Cell; 24 hours. Here is the method:
as §1, §2, §3, §4, §5, §6, §7, §8

The subject of assay [5] is Human large cell immunoblastic lymphoma cell line SR. Nature of the assay: Inhibition of SR cell proliferation (CellTiter luminescent viability). The following applies: Table IE1, CDK4/6 inhibitor-based, 96 hours, read-out: Inhibitory activity (IC50, nM) on tumor cell proliferation, SR. Here is the method:
The tumor cells used herein were cultured in a cell culture medium listed in table 3 at 37 °C in an incubator with 5% CO2. Prior to experimentation, all cell lines used were correctly identified by STR profiling, and tested negative for mycoplasma contamination using a mycoplasma detection kit through routine screenings.
The IC50 values of the compounds of the present disclosure (including the compounds in Table 1, Table 2, and Examples 1-468) were determined using the CellTiter-Meiluncell Luminescent Cell Viability Assay Kit from Dalian Meilun Biotech Co., Ltd. The detailed procedure is as follows: Tumor cells were seeded in 96-well cell culture plates at the densities specified in Table 4. On the following day, the test compounds of the present disclosure were subjected to serial dilution. The dilution can be performed according to one of the following two methods: • (1) The first dilution method: The test compounds of the present disclosure (including the compounds in Table 1, Table 2, and Examples 1-468) were subjected to 5-fold serial dilutions starting from a highest concentration of 2000 μM, resulting in a total of 9 concentrations from high to low (2000, 400, 80, 16, 3.2, 0.64, 0.128, 0.0256, 0.00512 μM). Subsequently, 0.5 μL of the test compound dilution was transferred into the 96-well plate containing the cells, with each well containing 100 μL of cell culture medium. […] Into the 96-well plate, the diluted test compounds and corresponding detection reagents were added, resulting in final test compound concentrations of 500 nM and 10 nM, respectively. The experimental procedure is described below using the diluted 2 μM test compound as an example.
0.5 μL of the aforementioned diluted compound of the present disclosure (including the compounds in Table 1, Table 2, and Examples 1-468) was added to the seeded cells in 100 μL of medium, yielding a final test compound concentration of 10 nM. After the cells were treated with the compounds of the present disclosure for a specified period, the cell viability assay reagent was added to the culture medium according to the kit's instructions to determine cell viability. […] All controls were treated using the same procedure as the compounds of the present disclosure. The growth inhibition curves for the compounds of the present disclosure were plotted using Prism GraphPad software, and the IC50 values were calculated therefrom.

Assay [6] has as its system Human Acute T Lymphoblastic Leukemia Cells (Molt-4). The assay is described as follows: Inhibition of Molt-4 cell proliferation (CellTiter luminescent viability). As to conditions: Table IE1, CDK4/6 inhibitor-based; Molt-4, 96 hours; read-out: Inhibitory activity (IC50, nM) on tumor cell proliferation, Molt-4.
Assay [7] concerns Human acute lymphocytic leukemia T lymphocytes cell line (CCRF-CEM). The assay is described as follows: Inhibition of CCRF-CEM cell proliferation (CellTiter luminescent viability). As to conditions: Table IE1, CDK4/6 inhibitor-based, 96 hours, read-out: Inhibitory activity (IC50, nM) on tumor cell proliferation, CCRF-CEM.

T2 sequence (Q00534 whole entry): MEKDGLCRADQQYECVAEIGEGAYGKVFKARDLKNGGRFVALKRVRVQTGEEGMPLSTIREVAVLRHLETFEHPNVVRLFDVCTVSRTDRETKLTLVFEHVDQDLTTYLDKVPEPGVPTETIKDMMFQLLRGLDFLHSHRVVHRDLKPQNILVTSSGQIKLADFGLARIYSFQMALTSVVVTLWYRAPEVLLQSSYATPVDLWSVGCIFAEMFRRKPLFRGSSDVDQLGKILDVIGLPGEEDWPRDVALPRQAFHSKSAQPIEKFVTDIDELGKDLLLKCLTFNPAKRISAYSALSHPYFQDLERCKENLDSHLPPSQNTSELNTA
T2 sequence (Q96SW2 whole entry): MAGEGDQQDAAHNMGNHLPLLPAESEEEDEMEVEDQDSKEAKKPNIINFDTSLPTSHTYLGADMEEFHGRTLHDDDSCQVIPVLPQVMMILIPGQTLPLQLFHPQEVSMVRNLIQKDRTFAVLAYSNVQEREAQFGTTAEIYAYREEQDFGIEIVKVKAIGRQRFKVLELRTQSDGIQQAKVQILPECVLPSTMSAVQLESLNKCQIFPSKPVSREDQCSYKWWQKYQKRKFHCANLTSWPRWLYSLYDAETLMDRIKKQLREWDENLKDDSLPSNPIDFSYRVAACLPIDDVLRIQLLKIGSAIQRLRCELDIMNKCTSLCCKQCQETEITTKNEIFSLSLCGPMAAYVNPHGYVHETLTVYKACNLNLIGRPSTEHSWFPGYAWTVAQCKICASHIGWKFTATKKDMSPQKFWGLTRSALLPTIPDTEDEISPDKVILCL
T2 sequence (Q16531 whole entry partner): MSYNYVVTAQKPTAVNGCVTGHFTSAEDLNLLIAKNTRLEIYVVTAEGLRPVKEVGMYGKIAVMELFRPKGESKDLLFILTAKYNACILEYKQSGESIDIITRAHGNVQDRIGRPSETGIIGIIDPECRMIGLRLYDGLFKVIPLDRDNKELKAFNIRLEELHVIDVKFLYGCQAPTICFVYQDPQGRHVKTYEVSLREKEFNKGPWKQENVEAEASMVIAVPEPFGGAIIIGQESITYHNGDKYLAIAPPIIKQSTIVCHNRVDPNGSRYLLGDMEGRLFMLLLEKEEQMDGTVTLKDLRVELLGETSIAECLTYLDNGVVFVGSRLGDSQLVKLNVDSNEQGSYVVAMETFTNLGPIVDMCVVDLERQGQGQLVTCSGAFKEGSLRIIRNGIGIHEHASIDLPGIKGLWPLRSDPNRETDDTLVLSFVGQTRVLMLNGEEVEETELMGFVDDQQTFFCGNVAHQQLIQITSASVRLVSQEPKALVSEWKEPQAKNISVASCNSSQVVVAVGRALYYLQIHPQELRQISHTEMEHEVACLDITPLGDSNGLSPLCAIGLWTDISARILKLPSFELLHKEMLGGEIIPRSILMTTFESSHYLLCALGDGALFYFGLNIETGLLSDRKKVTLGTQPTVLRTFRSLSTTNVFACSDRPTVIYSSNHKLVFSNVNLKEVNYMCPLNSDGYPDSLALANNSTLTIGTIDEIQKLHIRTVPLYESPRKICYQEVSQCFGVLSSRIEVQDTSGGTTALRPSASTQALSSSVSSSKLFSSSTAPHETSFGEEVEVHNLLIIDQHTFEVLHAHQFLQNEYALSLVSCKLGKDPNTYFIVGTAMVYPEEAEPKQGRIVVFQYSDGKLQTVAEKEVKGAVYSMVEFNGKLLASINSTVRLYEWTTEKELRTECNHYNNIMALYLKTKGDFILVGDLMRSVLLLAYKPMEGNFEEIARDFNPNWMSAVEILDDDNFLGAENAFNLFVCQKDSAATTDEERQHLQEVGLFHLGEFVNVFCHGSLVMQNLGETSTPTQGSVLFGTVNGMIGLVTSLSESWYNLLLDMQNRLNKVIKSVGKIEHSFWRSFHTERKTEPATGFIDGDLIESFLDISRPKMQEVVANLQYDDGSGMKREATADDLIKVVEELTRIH
T1 sequence (P11802 whole entry): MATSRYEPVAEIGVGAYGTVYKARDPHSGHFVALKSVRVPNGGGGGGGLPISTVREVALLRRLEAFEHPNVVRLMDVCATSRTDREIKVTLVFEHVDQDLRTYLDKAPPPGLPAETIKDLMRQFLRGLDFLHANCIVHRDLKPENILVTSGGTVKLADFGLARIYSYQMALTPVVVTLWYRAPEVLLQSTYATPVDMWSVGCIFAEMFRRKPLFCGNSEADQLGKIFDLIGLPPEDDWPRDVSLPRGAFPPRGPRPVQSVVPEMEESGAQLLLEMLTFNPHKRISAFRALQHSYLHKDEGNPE
T1 sequence (Q96SW2 whole entry): as the sequence (Q96SW2 whole entry) above
T1 sequence (Q16531 whole entry partner): as the sequence (Q16531 whole entry partner) above

As to `CN(C)C(=O)c1cc2cnc(Nc3ccc(N4CCC(CN5CCN(C6CCN(c7ccc8c(c7)C(=O)N(N7CCC(=O)NC7=O)C8=O)CC6)CC5)CC4)cn3)nc2n1C1CCCC1` [GT-05205, 7-cyclopentyl-2-((5-(4-((4-(1-(2-(2,4-dioxotetrahydropyrimidin-1(2H)-yl)-1,3-dioxoisoindolin-5-yl)piperidin-4-yl)piperazin-1-yl)methyl)piperidin-1-yl)pyridin-2-yl)amino)-N,N-dimethyl-7H-pyrrolo[2,3-d]pyrimidine-6-carboxamide], in assay [1], the inhibition (as a rule, the share of the control response that was lost under treatment) at 0.01 µM fell in the range of 20 to 25% and the inhibition at 0.5 µM is 40 to 60%. For the same compound, in assay [2], the inhibition at 0.01 µM lay within 35 to 40% and the inhibition at 0.5 µM fell in the range of 35 to 40%. Further, in assay [3], the “Degradation of substrate protein CDK4 (substrate protein remaining %)” value is “B (80%<substrate protein remaining %≤100%)”. Besides, in assay [4], the “Degradation of substrate protein CDK6 (substrate protein remaining %)” value was “A (0%≤substrate protein remaining %≤80%)”.
As for `CN(C)C(=O)c1cc2cnc(Nc3ccc(N4CCC(CN5C6CCC5CN(c5ccc7c(c5)C(=O)N(N5CCC(=O)NC5=O)C7=O)C6)CC4)cn3)nc2n1C1CCCC1` [GT-05812, 7-cyclopentyl-2-((5-(4-((3-(2-(2,4-dioxotetrahydropyrimidin-1(2H)-yl)-1,3-dioxoisoindolin-5-yl)-3,8-diazabicyclo[3.2.1]octan-8-yl)methyl)piperidin-1-yl)pyridin-2-yl)amino)-N,N-dimethyl-7H-pyrrolo[2,3-d]pyrimidine-6-carboxamide], in assay [1], the inhibition at 0.01 µM was in the range of 15 to 20% and the inhibition at 0.5 µM was 40 to 60%. In assay [2], the inhibition at 0.01 µM was 35 to 40% and the inhibition at 0.5 µM was 30 to 35%. The “Degradation of substrate protein CDK4 (substrate protein remaining %)” value in assay [3] is given as “B (80%<substrate protein remaining %≤100%)”. The “Degradation of substrate protein CDK6 (substrate protein remaining %)” value in assay [4] is listed as “A (0%≤substrate protein remaining %≤80%)”.
With `CN(C)C(=O)c1cc2cnc(Nc3ccc(N4CCC(N(C)Cc5ccc6c(c5)CN(N5CCC(=O)NC5=O)C6=O)CC4)cn3)nc2n1C1CCCC1` [GT-06487, 7-cyclopentyl-2-((5-(4-(((2-(2,4-dioxotetrahydropyrimidin-1(2H)-yl)-1-oxoisoindolin-5-yl)methyl)(methyl)amino)piperidin-1-yl)pyridin-2-yl)amino)-N,N-dimethyl-7H-pyrrolo[2,3-d]pyrimidine-6-carboxamide], in assay [2], the inhibition at 0.01 µM is 25 to 30% and the inhibition at 0.5 µM was 40 to 60%. In addition, the “Degradation of substrate protein CDK4 (substrate protein remaining %)” value in assay [3] was “A (0%≤substrate protein remaining %≤80%)”. In assay [4], the “Degradation of substrate protein CDK6 (substrate protein remaining %)” value is recorded as “A (0%≤substrate protein remaining %≤80%)”.
Consider `CN(C)C(=O)c1cc2cnc(Nc3ccc(N4CCC(N(C)CC5CCN(c6ccc7c(c6)C(=O)N(N6CCC(=O)NC6=O)C7=O)CC5)CC4)cn3)nc2n1C1CCCC1` [GT-06489, 7-cyclopentyl-2-((5-(4-(((1-(2-(2,4-dioxotetrahydropyrimidin-1(2H)-yl)-1,3-dioxoisoindolin-5-yl)piperidin-4-yl)methyl)(methyl)amino)piperidin-1-yl)pyridin-2-yl)amino)-N,N-dimethyl-7H-pyrrolo[2,3-d]pyrimidine-6-carboxamide], for which, in assay [1], the inhibition at 0.01 µM fell in the range of 25 to 30% and the inhibition at 0.5 µM is 40 to 60%. In assay [2], the inhibition at 0.01 µM was 30 to 35% and the inhibition at 0.5 µM fell in the range of 40 to 60%. In assay [3], the “Degradation of substrate protein CDK4 (substrate protein remaining %)” value was “A (0%≤substrate protein remaining %≤80%)”. Further, the “Degradation of substrate protein CDK6 (substrate protein remaining %)” value in assay [4] was “A (0%≤substrate protein remaining %≤80%)”.
Regarding `CC(=O)c1c(C)c2cnc(Nc3ccc(N4CCN(Cc5ccc6c(c5)CN(N5CCC(=O)NC5=O)C6=O)CC4)cn3)nc2n(C2CCCC2)c1=O` [GT-06573, 1-(5-((4-(6-((6-acetyl-8-cyclopentyl-5-methyl-7-oxo-7,8-dihydropyrido[2,3-d]pyrimidin-2-yl)amino)pyridin-3-yl)piperazin-1-yl)methyl)-1-oxoisoindolin-2-yl)dihydropyrimidine-2,4 (1H,3H)-dione], the inhibition at 0.01 µM lay within 40 to 60% in assay [1] and 30 to 35% in assay [2]. Further, the inhibition at 0.5 µM in assay [1] fell in the range of 60 to 80%; in assay [2], 40 to 60%. Besides, the “Degradation of substrate protein CDK4 (substrate protein remaining %)” value in assay [3] is reported as “B (80%<substrate protein remaining %≤100%)”. Besides, the “Degradation of substrate protein CDK6 (substrate protein remaining %)” value in assay [4] was “A (0%≤substrate protein remaining %≤80%)”.
Consider `Cc1nc2c(F)cc(-c3nc(Nc4ccc(N5CCC(N(C)CC6CCN(c7ccc8c(c7)C(=O)N(N7CCC(=O)NC7=O)C8=O)CC6)CC5)cn4)ncc3F)cc2n1C(C)C` [GT-06733, 2-(2,4-dioxotetrahydropyrimidin-1(2H)-yl)-5-(4-(((1-(6-((5-fluoro-4-(4-fluoro-1-isopropyl-2-methyl-1H-benzo[d]imidazol-6-yl)pyrimidin-2-yl)amino)pyridin-3-yl)piperidin-4-yl)(methyl)amino)methyl)piperidin-1-yl)isoindoline-1,3-dione], for which the IC50 lay in the range of 100 to 300 nM in assay [5], 100 to 300 nM in assay [6], 10 to 50 nM in assay [1] and 100 to 300 nM in assay [7]. Also, the “Degradation of substrate protein CDK4 (substrate protein remaining %)” value in assay [3] was “A (0%≤substrate protein remaining %≤80%)”. In assay [4], the “Degradation of substrate protein CDK6 (substrate protein remaining %)” value is “A (0%≤substrate protein remaining %≤80%)”.
For `Cc1nc2c(F)cc(-c3nc(Nc4ccc(N5CCC(N6CCN(Cc7ccc8c(c7)C(=O)N(N7CCC(=O)NC7=O)C8=O)CC6)CC5)cn4)ncc3F)cc2n1C(C)C` [GT-06737, 2-(2,4-dioxotetrahydropyrimidin-1(2H)-yl)-5-((4-(1-(6-((5-fluoro-4-(4-fluoro-1-isopropyl-2-methyl-1H-benzo[d]imidazol-6-yl)pyrimidin-2-yl)amino)pyridin-3-yl)piperidin-4-yl)piperazin-1-yl)methyl)isoindoline-1,3-dione], the IC50 in assay [5] was 100 to 300 nM; in assay [1] it was 300 to 400 nM. Moreover, the “Degradation of substrate protein CDK4 (substrate protein remaining %)” value in assay [3] is listed as “B (80%<substrate protein remaining %≤100%)”. Further, the “Degradation of substrate protein CDK6 (substrate protein remaining %)” value in assay [4] is reported as “A (0%≤substrate protein remaining %≤80%)”.
